According to US10561676B2, “Method for treating cancer using dual antagonists of CXCR1 and CXCR2” (Syntrix Biosystems, Inc., priority 2018, dated 2020):

Columns and labels:
CXCR1 = target: T1, CXCR1 (Homo sapiens, UniProt P25024); assay: Wash-resistant inhibition of CXCL8-mediated calcium flux, CXCR1-transfected RBL cells; type: cell-based; settings: 30 min incubation at 0.4, 2, 10 μM, then washout
T1 construct: expressed in transfected cells
T1 sequence (P25024 1-350): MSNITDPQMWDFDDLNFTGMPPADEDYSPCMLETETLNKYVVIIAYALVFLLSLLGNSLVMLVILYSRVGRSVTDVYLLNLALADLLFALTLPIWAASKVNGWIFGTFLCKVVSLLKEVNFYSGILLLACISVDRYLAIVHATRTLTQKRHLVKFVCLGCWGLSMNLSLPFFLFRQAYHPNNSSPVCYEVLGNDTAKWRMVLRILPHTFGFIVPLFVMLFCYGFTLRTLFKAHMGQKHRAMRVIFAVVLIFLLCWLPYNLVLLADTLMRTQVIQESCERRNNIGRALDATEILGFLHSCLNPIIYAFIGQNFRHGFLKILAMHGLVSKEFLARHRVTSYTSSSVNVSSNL
Method: (§1) In order to test this hypothesis, RBL cells (10^7 cells/ml) stably transfected with either CXCR1 or CXCR2 were (1) incubated with SX-682 at various concentrations for 30 minutes at 37° C., (2) washed and resuspended in assay buffer (RPMI/2% serum) at room temperature, and (3) assayed for CXCL8-mediated calcium response at time points up to 12 h after inhibitor washout. The concentrations of SX-682 tested were 0 (positive control), 0 (negative control), 0.4, 2, and 10 μM. At 30 minutes before each time point, a 56.25 μl aliquot of the cells were removed and loaded for 30 minutes at room temperature in the dark with FLIPR™ 3 reagent (262.5 μl per tube). Following FLIPR™ 3 incubation, cells were assayed for CXCL8 mediated intracellular calcium release as described in Pharmacology Example 1.

[1] = system: C3Tag mouse model of breast cancer; assay: C3Tag mouse model of breast cancer; type: in vivo
Excerpt: The C31-T-antigen (C3Tag) mouse model is a validated model of human triple-negative basal cell breast cancer as shown by gene expression analysis (Maroulakou, 1994, Proc Natl Acad Sci, 91:11236-40, herein incorporated by reference). The expressed large T-antigen binds and inactivates the RB and p53 tumor suppressor genes, explaining why this model faithfully recapitulates human basal breast cancer, which also harbors RB and p53 inactivation. This model also has frequent K-Ras amplification and infrequent Ras mutations. Treatment regimens were started following tumor manifestation. SX-682 was given orally via medicated feed, at an approximate dose of 10 mg/day/mouse. CP was administered once weekly via intraperitoneal injection at a dose of 50 mg/kg.

[2] = system: isolated human neutrophils; assay: CXCL8-mediated intracellular calcium flux in isolated human neutrophils; type: cell-based; settings: Neutrophil, 25 nM CXCL8, mean ±SE
Method: Cells were incubated for 30 min at 37° C. […] The test compound or DMSO (control) was added again at the same concentrations that were used during cell loading.
The maximum change in fluorescence, expressed in arbitrary units over baseline (Max-Min), was used to determine the CXCL8 response.

[3] = system: TRIA mouse model of melanoma; assay: TRIA mouse model of melanoma
CXCR2 = target: T2, CXCR2 (Homo sapiens, UniProt P25025); assay: Wash-resistant inhibition of CXCL8-mediated calcium flux, CXCR2-transfected RBL cells; type: cell-based; settings: 30 min incubation at 0.4, 2, 10 μM, then washout
T2 construct: expressed in transfected cells
T2 sequence (P25025 1-360): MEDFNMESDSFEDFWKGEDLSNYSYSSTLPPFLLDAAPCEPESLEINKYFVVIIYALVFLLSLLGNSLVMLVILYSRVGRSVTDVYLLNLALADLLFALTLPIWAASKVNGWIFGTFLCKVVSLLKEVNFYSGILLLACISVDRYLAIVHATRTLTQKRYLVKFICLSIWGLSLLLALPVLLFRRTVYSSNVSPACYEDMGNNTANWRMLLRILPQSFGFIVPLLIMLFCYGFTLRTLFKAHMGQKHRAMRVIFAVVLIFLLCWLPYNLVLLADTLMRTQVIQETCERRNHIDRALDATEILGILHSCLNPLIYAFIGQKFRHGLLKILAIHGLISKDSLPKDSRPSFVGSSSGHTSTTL
Method: as §1

MDSCs = assay: GROα-mediated MDSC migration; type: cell-based, mouse; settings: 0.1, 1 and 10 μM, 100 ng/ml GROα, 12 hours
Method: Using the of method of Katoh 2013 to induce and isolate MDSCs, male BALBc mice were given a single intraperitoneal injection of azoxymethane (AOM, 10 mg/kg). Seven days later, these mice were given 4 cycles of water and water containing 1.25% dextran sulfate sodium (DSS). One cycle consisted of providing mice with regular drinking water for 7 days, followed by 1.25% aqueous DSS for 7 days, followed by regular drinking water for 7 days. MDSCs were isolated from femurs and blood of AOM/DSS-treated BALBc mice using the Myeloid-Derived Suppressor Cell Isolation Kit (Miltenyi Biotec) after lysis of red blood cells (RBC) according to the manufacturer's instructions. GROα (CXCL1) was placed in the bottom chamber of a 24-well plate at a concentration of 100 ng/ml. MDSCs isolated from blood of AOM/DSS-treated BALBc mice were seeded at a density of 1×10^6/well in the upper chamber (3 m, BD Falcon). After incubation for 12 hours, migrated cells were quantified by flow cytometry using COUNTBRIGHT™ Absolute Counting Beads (Molecular Probes). To evaluate the effect of SX-682 on GROα-mediated MDSC migration, aqueous DMSO solutions of SX-682 were added to the MDSC-seeded wells prior to migration. The test concentrations of SX-682 were 0.1, 1 and 10 μM, and the DMSO concentration was <1%.

[4] = SX-682 10 mg/day/mouse oral feed + CP 50 mg/kg weekly i.p.

Which “time inhibition of calcium flux is sustained after washout” value (CXCR1) does the source give for `O=C(Nc1ccc(F)cc1)c1cnc(SCc2cc(OC(F)(F)F)ccc2B(O)O)nc1` [SX-682, 2-(2-boronic acid-5-trifluoromethoxy-benzylsulfanyl)-pyrimidine-5-carboxylic acid (4-fluoro-phenyl)-amide] here?
The value was “at least 12 hours”.

What about the “tumor growth vs untreated controls, SX-682 alone” value ([1]; 10 mg/day/mouse oral feed) of the same compound?
Its value is “significantly reduced tumor growth”.

And the “median survival, SX-682 combined with CP” value [1, 4]?
Its value is over 60 days.

And the “tumor growth vs untreated controls, SX-682 in combination with carboplatin” value [1, 4]?
The value was “significantly reduced tumor growth”.

And the “median survival, single agent” value ([1]; SX-682 10 mg/day/mouse oral, carboplatin 50 mg/kg weekly i.p., vehicle 18 days)?
The value was 28 days.

And the IC50 [2]?
Its IC50 is 55 ± 6 nM.

And the “tumor growth, SX-682 alone” value ([3]; 10 mg/day/mouse oral feed)?
Its value is “significantly slowed tumor growth”.

What about the “complete remission (zero tumor volume), SX-682 combination with CP” value [3, 4] of the same compound?
Its value is 5 of 11.

And the “time inhibition of calcium flux is sustained after washout” value (CXCR2)?
The value was “at least 12 hours”.

And the “GROα-mediated MDSC migration” value (MDSCs)?
The value was “effectively inhibit GROα-mediated MDSC migration in a dose-dependent manner”.
